Measurements published in paper PMC9967700, “Metabolism-Guided Optimization of Tryptophanol-Derived Isoindolinone p53 Activators” (Pharmaceuticals, 2023).
Read-outs that look alike come from different tables or passages of the source.

Tests used:
[1] = tested on: HCT116 p53+/+ cells; test: Antiproliferative activity, sulforhodamine B (SRB) assay; type: cell-based, human; conditions: for S.I. (selectivity index): HCT116 p53−/− versus HCT116 p53+/+; for GI50: Homo sapiens, HCT-116, 48 h treatment, read-out: HCT116 p53+/+ GI50
Experimental: (§1) Tumor cells were cultured in RPMI-1640 with UltraGlutamine (Lonza, VWR), supplemented with 10% fetal bovine serum (FBS; Gibco, Alfagene) and maintained in a humidified incubator at 37 °C with 5% CO2. Cell lines were seeded in 96-well plates at the cells/well density of 5.0 × 10^3.

[2] = tested on: HCT116 p53−/− cells; test: as above; type: cell-based, human; conditions: Homo sapiens, HCT-116, 48 h, 48 h treatment, read-out: HCT116 p53−/− GI50
Experimental: as §1

[3] = Human liver microsomes incubations: half-life and intrinsic clearance; type: in vitro ADME; conditions: for Intrinsic Clearance / clearance classification: HLM; for Intrinsic Clearance: calculated from half-life (Equation 2); for clearance classification: classification after ref 32; for half-life at 10 μM: human, liver microsomes, pH 7.4, HLM 1 mg protein/mL, NADPH, 37 °C
Experimental: (§2) For the generation of Phase I metabolites: tested compounds, at a 10 μM concentration (1 μL of 5 mM DMSO stock solution), were incubated with HLM (1 mg protein/mL), Vivid® regenerating system (5 μL) and NADPH (1mM) in ABIC 50 mM buffer pH 7.4, for a total incubation volume of 500 μL. Incubations were run in duplicate, at 37 °C. Aliquots were collected at 0, 5, 10, 20, 30, 40, 50, 60, 75, 90, 120, 180 min and reactions were stopped by adding and ice-cold solution of reserpine (2.5 μM) in acetonitrile. Additional aliquots were taken at 0 and 120 min and subsequently treated with L-lysine (100 µM) and sodium cyanoborohydride (10 µM) or glutathione (100 µM). Following centrifugation (10,000 rpm, 15 min, RT), the clear supernatants were collected and analyzed LC-ESI-HRMS/MS. Control incubations were conducted in the same conditions: (1) using DMSO as negative control, in absence of the test drug; (2) using heat-denatured HLM (90 °C, 15 min); (3) using nevirapine, as a positive control, instead of the tested compound; and (4) in absence of NADPH co-factor.
The in vitro depletion half-lives of tested compounds t1/2 were calculated using Equation (1), assuming that testing compounds follow a first-order kinetic trend. The “slope” was determined from linear fitting of the natural logarithm of the concentration of drug remaining plotted against time:(1) t1/2=ln2/slope
The intrinsic clearance in HLM (CLint, HLM) was calculated using Equation (2):(2) CLint HLM =ln2/ t1/2 x mL incubation/mg microsomes x 45 mg microsomes/g liver x 26 g liver/Kg b.w.

[4] = Bioactivation: S9 rat liver fraction and HLM incubations in the presence of glutathione; type: in vitro ADME, human
Experimental: as §2, with “Control incubations were conducted in the same conditions: (1) using DMSO as negative control, in absence of the test drug; (2) using heat-denatured HLM (90 °C, 15 min); (3) using nevirapine, as a positive control, instead of the tested compound; and (4) in absence of NADPH co-factor.” left out
Tested compounds at a 10 μM concentration (1 μL of 5 mM DMSO stock solution) were incubated with rat liver S9 fraction (2 mg protein/mL), Vivid® regenerating system (2 μL) and NADPH (1mM) in ABIC 50 mM buffer pH 7.4, for a total incubation volume of 500 μL. […] Following centrifugation (10,000 rpm, 15 min, RT) the clear supernatants were collected and analyzed LC-ESI-HRMS/MS. […]

[5] = In vitro reactions with bionucleophiles
Experimental: To a solution of compound 13d in acetonitrile (1.00 eq., 10.1 mg in 400 µL, 5.04 × 10^−2 M) reduced glutathione (4.00 eq. 25.2 mg, 82.00 µmol) dissolved in 400 µL of ABIC buffer 50 mM pH 7.4 was added. The reaction mixture was incubated for 24 h at 37 °C and monitored by LC-ESI-HRMS/MS.
To a solution of compound 13k in acetonitrile (1.00 eq., 4.3 mg in 200 µL, 3.92 × 10^−2 M) reduced glutathione (4.00 eq. 9.64 mg, 31.36 µmol) dissolved in 200 µL of ABIC buffer 50 mM pH 7.4 was added. The reaction mixture was incubated for 24 h at 37 °C and monitored by LC-ESI-HRMS/MS.
SLMP53-1_M5 (1.00 eq., 2.1 mg, dissolved in 150 µL of ACN) was added to a L-lysine (2 eq.) solution in 50 mM ABIC buffer pH 7.4. Following incubation for 24 h at 37 °C a solution of cyanoborohydride (2 eq) was added. The mixture was analyzed by LC-ESI(+)-HRMS/MS.

[6] = Human plasma incubations (stability); type: in vitro ADME; conditions: 37 °C, 40 μM
Experimental: Human plasma incubations were performed in duplicate, at 37 °C, by standard methodology. Specifically, incubations contained 40 μM of the test compound for a final volume of 1 mL. The mixtures were incubated for a total time of 24 h, and aliquots following 0, 30, 60, 120, 180 min and 24 h and quenched with a cold solution of reserpine 0.1 mM in acetonitrile. Following centrifugation (10,000 rpm, 10 min, RT), the clear supernatants were collected and analyzed by LC-ESI(+)-MS/MS. Additional control assays were conducted using PBS pH 7.4 instead of plasma solution and using procaine as a positive control.

[7] = Glucuronidation in alamethicin induced-HLM with NADPH and UDPGA; type: in vitro ADME, human; conditions: NADPH, UDPGA, LC-ESI(-)-HRMS/MS
Experimental: For the generation of glucuronidation metabolites: HLM were preincubated for 15 min with alamethicin (25 µg/mL). Incubations were then run in duplicate at 37 °C, using the following conditions: test compounds at a concentration of 25 µM (1 μL of DMSO stock solution 5 mM), HLM (1 mg/mL, 10 μL), NADPH (5 mM), MgCl2 (2 mM), UDPGA (5 mM) for a final volume of 200 μL, in 50 mM ABIC buffer pH 7.4. Control incubations were conducted in the same conditions using: (1) DMSO as negative control, in absence of the test compound; (2) heat-denatured HLM (90 °C, 15 min); and (3) in absence of UDPGA co-factor. Aliquots (50 μL) were collected at 0 and 2 h and then quenched with 50 μL of a cold 2.5 μM reserpine solution in acetonitrile. All the samples were vortexed and centrifuged for 15 min at 10,000 rpm. The supernatants were collected and stored at −20 °C until further analysis by LC-ESI-HRMS/MS.

[8] = tested on: HCT116 p53+/+ cells; design: method as in PMID 26735173; conditions: 48 h treatment; cited from earlier work
[9] = tested on: HCT116 p53−/− cells; design: method as in PMID 26735173; conditions: 48 h treatment; cited from earlier work
[10] = design: method as in PMID 26735173; conditions: cited from earlier work
[11] = mean ± SEM of 3–5 independent experiments
[12] = mean ± SEM of 5 independent experiments

| GI50 [1, 11] [µM] | GI50 [2, 11] [µM] | Intrinsic Clearance [3] [mL/min/kg] | clearance classification [3] | half-life at 10 μM [3] [h] | stability towards plasmatic enzymes [6] | GSH adducts identified ([4]; S9 rat liver fraction and HLM in the presence of GSH) | GI50 [1, 12] [µM] | GI50 [2, 12] [µM] | reaction products upon L-lysine incubation ([5]; followed by reductive stabilization, 24 h, 37 °C) | Intrinsic Clearance ([3]; listed as SLMP53-2 (7)) [mL/min/kg] | SMILES | S.I. (selectivity index) [1] | GSH adducts stemming from the bioactivation of Phase I metabolites ([4]; S9 rat liver fraction incubation in the presence of GSH) | products of addition of GSH with concomitant loss of bromine ([5]; with or without enzymatic conditions (S9 rat liver incubations)) | Phase II (glucuronic acid conjugate) metabolites identified [7] | GI50 [8] [µM] | GI50 [9] [µM] | toxicity alerts in vivo [10] |
| --- | --- | --- | --- | --- | --- | --- | --- | --- | --- | --- | --- | --- | --- | --- | --- | --- | --- | --- |
| 8.09 ± 2.01 | 30.5 ± 2.1 | 3.4 | low clearance | 2.45 | – | – | – | – | – | – | O=C1c2ccccc2[C@@]2(c3ccccc3)OC[C@H](Cc3c(Br)n(Cc4ccccc4)c4ccccc34)N12 [Compound 13k, (3S, 9bR)-3-((1-benzyl-2-bromo-1H-indol-3-yl)methyl)-9b-phenyl-2,3-dihydrooxazolo[2,3-a]isoindol-5(9bH)-one] | 3.8 | no adducts stemming from the bioactivation of Phase I metabolites were identified | no products compatible with the addition of GSH, and the concomitant loss of bromine, were detected | – | – | – | – |
| – | – | 3.67 | low clearance | 2.3 | stable towards plasmatic enzymes for 3 h | Two GSH adducts were identified | – | – | – | – | CC12OCC(Cc3c[nH]c4ccccc34)N1C(=O)c1ccccc12 (stereo not shown) [SLMP53-1] | – | – | – | two glucuronic acid conjugates were identified | 15.6 ± 1.6 | 34 ± 3.5 | not associated with toxicity alerts |
| – | – | – | – | – | – | – | 48.8 ± 2.3 | 44 ± 1.8 | no reaction products were obtained | – | C[C@]12OC[C@H](CC(=O)c3ccccc3NC=O)N1C(=O)c1ccccc12 [SLMP53-1_M5, N-(2-(2-((3S,9bR)-9b-methyl-5-oxo-2,3,5,9b-tetrahydrooxazolo[2,3-a]isoindol-3-yl)acetyl)phenyl)formamide] | – | – | – | – | – | – | – |
| 8.4 ± 1.1 | 17.7 ± 2.3 | – | low clearance | 2.45 | stable towards plasmatic enzymes for 3 h | – | – | – | – | 2.75 | Cn1cc(C[C@H]2CO[C@]3(c4ccccc4)c4ccccc4C(=O)N23)c2ccccc21 [SLMP53-2] | 2.1 | – | – | no Phase II metabolites were identified | – | – | – |
